Calls of active or inactive are those of the source. No cut-off for these calls is given here.
Columns and labels:
Caenorhabditis elegans [1] = assay: Anti-alzheimer activity against heat-induced Caenorhabditis elegans CL4176 AD paralysis model assessed as reduction in amyloid-beta deposition measured after 5 days by ThS staining based fluorescence assay; format: functional, organism-based; conditions: dose 100-200 µM, time 5.0 day
SH-SY5Y [2] = assay: Neuroprotective activity against amyloid beta-induced toxicity in human SH-SY5Y cells assessed as reduction in fluorescence intensity at 10 uM incubated for 24 hrs by immunofluorescence staining based analysis; format: functional, cell-based
[3] = biological target: T1, Amyloid-beta precursor protein (Homo sapiens, UniProt P05067); assay: Inhibition of amyloid beta aggregation in amyloid beta-induced human SH-SY5Y cells assessed as reduction in fluorescence intensity at 2 to 20 uM incubated for 24 hrs by Western blot analysis; format: cell-based; conditions: dose 2-20 µM
T1 sequence (P05067 whole entry): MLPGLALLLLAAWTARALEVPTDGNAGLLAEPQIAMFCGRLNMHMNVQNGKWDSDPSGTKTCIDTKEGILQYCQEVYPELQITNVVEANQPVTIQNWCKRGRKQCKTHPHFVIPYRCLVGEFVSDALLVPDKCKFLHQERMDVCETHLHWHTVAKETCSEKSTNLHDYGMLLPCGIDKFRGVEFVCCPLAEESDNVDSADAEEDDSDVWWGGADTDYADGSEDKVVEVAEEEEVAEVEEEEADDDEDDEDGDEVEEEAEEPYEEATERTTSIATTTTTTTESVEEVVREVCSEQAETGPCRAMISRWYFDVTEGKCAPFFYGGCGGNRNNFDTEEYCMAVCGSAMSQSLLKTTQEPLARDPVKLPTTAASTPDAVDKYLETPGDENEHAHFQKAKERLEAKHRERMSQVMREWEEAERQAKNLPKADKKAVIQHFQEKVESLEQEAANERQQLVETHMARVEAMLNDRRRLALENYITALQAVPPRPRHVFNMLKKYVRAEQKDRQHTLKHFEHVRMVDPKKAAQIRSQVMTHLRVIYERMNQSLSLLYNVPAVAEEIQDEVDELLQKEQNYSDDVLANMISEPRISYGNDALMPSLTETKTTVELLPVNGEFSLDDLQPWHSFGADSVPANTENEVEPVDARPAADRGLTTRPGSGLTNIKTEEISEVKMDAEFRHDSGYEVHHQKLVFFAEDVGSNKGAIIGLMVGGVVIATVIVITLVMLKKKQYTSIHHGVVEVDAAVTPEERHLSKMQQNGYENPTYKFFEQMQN

Caenorhabditis elegans [4] = assay: Anti-alzheimer activity against heat-induced Caenorhabditis elegans CL4176 AD paralysis model assessed as reduction in amyloid-beta deposition at 100 to 200 uM; format: functional, organism-based; conditions: dose 100-200 µM, time 5.0 day
[5] = biological target: T1, Amyloid-beta precursor protein; assay: Binding affinity to amyloid beta plaques 1 to 42 (unknown origin) assessed as dissociation constant
[6] = biological target: T1, Amyloid-beta precursor protein; assay: Binding affinity to amyloid beta (unknown origin) assessed as dissociation constant
SH-SY5Y [7] = assay: Neuroprotective activity against amyloid beta-induced toxicity in human SH-SY5Y cells assessed as reduction in fluorescence intensity at 2 uM incubated for 24 hrs by immunofluorescence staining based analysis; format: functional, cell-based
Caenorhabditis elegans [8] = assay: Anti-alzheimer activity against heat-induced Caenorhabditis elegans CL2006 AD paralysis model assessed as reduction in amyloid-beta deposition at 200 uM measured after 5 days by ThS staining based fluorescence assay; format: functional, organism-based; conditions: time 5.0 day
[9] = Fluorescence property of compound in DCM assessed as fluorescence quantum yield; format: physicochemical
[10] = Binding affinity to amyloid beta oligomer (unknown origin) assessed as dissociation constant; design: species or system Homo sapiens
[11] = (§1) Binding affinity to amyloid beta fibril (unknown origin) assessed as dissociation constant; design: species or system Homo sapiens
Homo sapiens [12] = species on record: Homo sapiens; assay: as §1
Homo sapiens [13] = species on record: Homo sapiens; assay: Binding affinity to amyloid beta monomer (unknown origin) assessed as dissociation constant
Albumin = Albumin (Bos taurus, UniProt P02769); assay: Binding affinity to bovine serum albumin (unknown origin) at 0.05 mg/ml by fluorescence analysis; conditions: cattle
Sequence of Albumin (P02769 whole entry): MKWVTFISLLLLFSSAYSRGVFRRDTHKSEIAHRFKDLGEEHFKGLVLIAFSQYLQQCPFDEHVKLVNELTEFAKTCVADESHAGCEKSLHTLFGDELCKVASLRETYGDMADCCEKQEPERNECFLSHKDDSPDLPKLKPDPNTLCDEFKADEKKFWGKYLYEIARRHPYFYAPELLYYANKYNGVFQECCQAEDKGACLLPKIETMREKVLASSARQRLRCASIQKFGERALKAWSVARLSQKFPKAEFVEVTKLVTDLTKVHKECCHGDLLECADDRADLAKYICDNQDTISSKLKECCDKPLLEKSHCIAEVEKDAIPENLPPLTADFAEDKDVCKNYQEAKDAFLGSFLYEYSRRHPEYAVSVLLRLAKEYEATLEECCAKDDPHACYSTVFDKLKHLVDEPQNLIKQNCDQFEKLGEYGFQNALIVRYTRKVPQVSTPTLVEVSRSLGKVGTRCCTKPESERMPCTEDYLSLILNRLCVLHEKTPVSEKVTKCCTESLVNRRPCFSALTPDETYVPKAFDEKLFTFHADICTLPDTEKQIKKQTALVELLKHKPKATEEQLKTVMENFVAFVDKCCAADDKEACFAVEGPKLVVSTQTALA

Homo sapiens [14] = species on record: Homo sapiens; assay: Binding affinity to pepsin (unknown origin) at 0.05 mg/ml by fluorescence analysis
Trypsin (Homo sapiens) = Trypsin (Homo sapiens) (UniProt P07477+P07478+P35030); assay: Binding affinity to trypsin (unknown origin) at 0.05 mg/ml by fluorescence analysis; format: protein assay
Homo sapiens [15] = species on record: Homo sapiens; assay: Binding affinity to lysozyme (unknown origin) at 0.05 mg/ml by fluorescence analysis
[16] = Binding affinity to cellulase (unknown origin) at 0.05 mg/ml by fluorescence analysis
Homo sapiens [17] = species on record: Homo sapiens; assay: Binding affinity to phosphoesterase (unknown origin) at 0.05 mg/ml by fluorescence analysis
[18] = biological target: T1, Amyloid-beta precursor protein; assay: Binding affinity to amyloid beta oligomers (unknown origin) at 5 uM by fluorescence analysis
Homo sapiens [19] = species on record: Homo sapiens; assay: Binding affinity to amyloid beta fibril (unknown origin) at 0.025 mg/ml by fluorescence analysis
[20] = Stability of compound at pH 2 to 10 in presence of Amyloid beta; format: physicochemical; conditions: buffer
[21] = Photostability of compound under continuous light irradiation; format: physicochemical
SH-SY5Y [22] = assay: Cytotoxicity against human SH-SY5Y cells at 100 uM incubated for 24 hrs; format: toxicity, cell-based
U-87 MG = assay: Cytotoxicity against human U-87 MG cells at 100 uM incubated for 24 hrs; format: toxicity, cell-based; conditions: u-87mg atcc
Mus musculus [23] = species on record: Mus musculus; assay: Binding affinity to amyloid beta plaques in 12 month old male APP/PS1 transgenic mouse model assessed as colocalization of amyloid beta plaques in brain at 100 uM incubated for 30 min by ab205240 staining based immunohistofluorescence assay; format: tissue-based; conditions: time 12.0 months
Mus musculus [24] = species on record: Mus musculus; assay: Binding affinity to amyloid beta plaques in 12 month old male APP/PS1 transgenic mouse model assessed as signal to noise ratio in brain slice at 100 uM incubated for 30 min by confocal microscopic analysis; format: tissue-based; conditions: time 12.0 months
Mus musculus [25] = species on record: Mus musculus; assay: Binding affinity to amyloid beta plaques in 12 month old male APP/PS1mouse brain cerebral cortex by light-sheet microscopy; format: tissue-based; conditions: time 12.0 months
[26] = Fluorescence property of compound in aqueous solution assessed as fluorescence quantum yield; format: physicochemical; conditions: buffer

With `O=c1c(O)c(-c2ccc(O)c(O)c2)oc2cc(O)cc(O)c12` the Activity (Caenorhabditis elegans [1]) was “Dose-dependent-effect”.

With `CC(=O)Oc1ccccc1C(=O)Nc1ncc([N+](=O)[O-])s1` the Activity (SH-SY5Y [2]) was “Active”, the Activity [3] was “Active” and the Activity (Caenorhabditis elegans [4]) was “Active”. The Activity (Caenorhabditis elegans [1]) was “Dose-dependent-effect”.

Work on `Cc1cc(/C=C/c2ccc(N(C)C)s2)n2c1C(CCCN1CCNc3ccccc31)=C1C=CC=[N+]1[B-]2(F)F` yielded a Kd [5] of 27 nM.

For `CN(C)c1ccc2cc(/C=C/c3ccc4ccccc4[n+]3C)c(=O)oc2c1`, the Kd [6] was 86 nM.

For `CCN(CC)c1ccc(/C=C/C2=[O+][B-](F)(F)OC(/C=C/c3ccc(N(CC)CC)nc3)=C2CCCOc2c(C)cccc2C)cc1`, the Kd [5] was 506 nM.

With `CC(=O)Oc1cccc(C(=O)Nc2ncc(N3CCOCC3)s2)c1` the Activity (SH-SY5Y [7]) was “Active”, the Activity [3] was “Active” and the Activity (Caenorhabditis elegans [4]) was “Active”. The Activity (Caenorhabditis elegans [1]) was “Dose-dependent-effect” and the Activity (Caenorhabditis elegans [8]) was “inactive”.

Compound `COCCOCCOC(=O)CCN1C(=O)/C(=C/c2ccc3c(c2)Sc2ccccc2N3C)SC1=S` has a Kd [6] of 28.2 nM.

`CN(C)c1ccc(/C=C/c2ccc3cc(C#N)c(=O)oc3c2)cc1` showed an Activity [9] of 0.3, a Kd [10] of 81.5 nM and a Kd [11] of 66.7 nM. For the same compound, the Activity (Homo sapiens [12]) was “Active”, the Activity (Homo sapiens [13]) was “inactive” and the Activity (Albumin) was “Not_active”. For the same compound, the Activity (Homo sapiens [14]) was “inactive”, the Activity (Trypsin (Homo sapiens)) was “inactive” and the Activity (Homo sapiens [15]) was “inactive”. For the same compound, the Activity [16] was “inactive”, the Activity (Homo sapiens [17]) was “inactive” and the Activity [18] was “Active”. The Activity (Homo sapiens [19]) was “Active”, the Stability [20] was “Stable” and the Stability [21] was “Stable”. For the same compound, the Activity (SH-SY5Y [22]) was “Non-toxic”, the Activity (U-87 MG) was “Non-toxic” and the Activity (Mus musculus [23]) was “Active”. For the same compound, the Activity (Mus musculus [24]) was “Active” and the Activity (Mus musculus [25]) was “Active”.

Compound `CN(C)c1ccc(/C=C/C=C/C=C(C#N)C#N)s1` has a Kd [6] of 117 nM.

`CN(C)c1ccc2cc3c(cc2c1)OCC(C=C(C#N)C#N)=C3` showed a Kd [6] of 44.8 nM.

`CN(C)c1ccc(-c2ccc3cc(C#N)c(=N)oc3c2)cc1` showed an Activity [26] of 0.027 and a Kd [6] of 548 nM.

Compound `CN(C)c1ccc(/C=C/C=C(C#N)/C=C/C(C#N)=C/C=C/C=C/c2ccc(N(C)C)cc2)cc1` has a Kd [5] of 1.04 nM.

For `CCCN1/C(=C/C=C2\CCCC(C=C(C#N)C#N)=C2Cl)C(C)(C)c2ccccc21`, the Kd [5] was 59.1 nM.

In the case of `CN(C)c1ccc(-c2ccc(/C=C/C3CC(=C(C#N)C#N)c4ccccc4N3CCCS(=O)(=O)O)s2)cc1` (configuration not stated), the Kd [6] is reported as 170 nM.

In the case of `COCCOCCn1c2ccccc2c2cc(CCc3cc[n+](C)c4ccccc34)ccc21`, the Kd [6] is reported as 13.1 nM.
